Numbered stars: 1 amine (or outer) side, 2 acyl side, 3 side chain; on linkers, the order of the positions; unused ones are H or OH. Bridge positions count the residues as written; N and C are the ends. Square brackets hold non-standard residues; d marks the D form. Peptide text beside a SMILES is read from it. * marks the point of attachment. C20 diacid = O=C(O)CCCCCCCCCCCCCCCCCCC(=O)*; γGlu = O=C(O)[C@H](CCC(=O)[*:2])N[*:1]; NMeI = CC[C@H](C)[C@H](NC)C(=O)O; Sar = CNCC(=O)O
Columns and labels:
Sprague Dawley (SD) rats = assay: Acute food intake and body weight in normal Sprague Dawley rats; format: in vivo; details: vehicle-corrected, dose 30 nmol/kg sc, once; for Body weight loss (%) after 96 hours: mean ± SEM, n = 8
Protocol: Sprague Dawley (SD) rats were obtained from Taconic A/S, Denmark. The animals arrived at least 7 days before the study start to allow acclimatization to experimental conditions. From arrival and throughout the study, the rats were housed in groups of 2 (n = 2) in a light-, temperature- and humidity-controlled room (reversed 12/12 h light/dark cycle: lights turned off during day-time and on during night-time; temperature 20-22°C; relative humidity 50-80%). Animals had access ad libitum to food (Altromin™ 1324, Brogaarden A/S, Gentofte, Denmark) and water (domestic quality tap water with citric acid added to pH ∼ 3.6) during the entire study. Stratification of rats was based on body weight (BW) on a cage-by-cage basis; mean BWs per cage were used as the basis for pairing four cages together in a group (n = 8 per group). A vehicle group and positive control group were included in each set of tests. Rats were dosed subcutaneously (sc) once in the morning immediately before turning off the lights, using a body weight-corrected dose of peptide (30 nmol/kg). Dosing volume was 5 ml/kg. Food intake was recorded manually at t = 0 (pre-dose) and at t = 4, 7, 10, 24, 48, 72 and 96 hours after dosing. Body weight was measured daily.
Statistical analyses on body weight were performed using GraphPad™ Prism version 5. The measured parameters were compared using unpaired t tests. Differences were considered statistically significant at p < 0.05. Data are means ± SEM; n =8.

[1] = Solubility assessment (turbidity absorbance at 325 nm); format: physicochemical; details: stock 2 mg/ml diluted 1:1, ambient temperature (typically 25°C), n=1; for Solubility, Acetate buffer pH 4: 100 mM acetate buffer pH 4.0; for Solubility, Acetate buffer pH 5: 100 mM acetate buffer pH 5.0; for Solubility, Histidine buffer pH 6: 100 mM histidine buffer pH 6.0; for Solubility, Histidine buffer pH 7: 100 mM histidine buffer pH 7.0; for Solubility, Phosphate buffer pH 6: 100 mM phosphate buffer pH 6.0; for Solubility, Phosphate buffer pH 7: 100 mM phosphate buffer pH 7.0; for Solubility, Phosphate buffer pH 7.5: 100 mM phosphate buffer pH7.5
Procedure, shortened: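 Turbidity read as absorbance at 325 nm (also 280 nm), single samples at ambient temperature (typically 25°C); ≤ 0.02 units counts as ≥ 1 mg/ml soluble. Samples made by 1:1 dilution of a 2 mg/ml acidic stock into 100 mM acetate, histidine or phosphate buffers, pH 4.0–7.5.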

[2] = target: T1, human calcitonin receptor (hCTR2) (Homo sapiens, UniProt P30988); assay: hCTR2 assay: induction of cAMP (AlphaScreen cAMP Assay kit) in COS7 cells expressing hCTR2; format: cell-based; details: cAMP induction in COS7 cells expressing hCTR2; average of a minimum of 3 determinations; read-out: hCTR2 EC50
T1 construct: expressed in transfected cells
T1 sequence (P30988 25-474): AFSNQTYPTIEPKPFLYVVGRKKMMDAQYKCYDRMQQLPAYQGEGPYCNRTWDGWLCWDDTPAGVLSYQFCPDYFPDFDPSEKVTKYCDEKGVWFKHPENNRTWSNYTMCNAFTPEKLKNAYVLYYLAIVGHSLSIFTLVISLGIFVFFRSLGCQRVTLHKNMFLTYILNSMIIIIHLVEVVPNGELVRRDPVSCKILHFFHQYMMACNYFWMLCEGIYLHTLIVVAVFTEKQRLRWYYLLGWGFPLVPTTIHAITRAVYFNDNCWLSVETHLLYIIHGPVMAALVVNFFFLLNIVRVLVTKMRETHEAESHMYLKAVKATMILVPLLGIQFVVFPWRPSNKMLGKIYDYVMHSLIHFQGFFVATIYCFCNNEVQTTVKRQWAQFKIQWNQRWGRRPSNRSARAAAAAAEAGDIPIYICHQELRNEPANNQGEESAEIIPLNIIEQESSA
Procedure, shortened: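 cAMP read-out by AlphaScreen after cell lysis; EC50 and % efficacy vs pramlintide from 4-parameter logistic fitting. Agonist stimulation: hCTR2-COS7 stable cells, 15 min, 37° C, 100 µM IBMX, 0.1% casein, Tyrode/HEPES pH 7.4.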

| EC50 [2] [nM] | SMILES | Food intake inhibition (%) after 48 hours (Sprague Dawley (SD) rats) [%] | Body weight loss (%) after 96 hours (Sprague Dawley (SD) rats) [%] | Solubility, Acetate buffer pH 4 [1] | Solubility, Acetate buffer pH 5 [1] | Solubility, Histidine buffer pH 6 [1] | Solubility, Histidine buffer pH 7 [1] | Solubility, Phosphate buffer pH 6 [1] | Solubility, Phosphate buffer pH 7 [1] | Solubility, Phosphate buffer pH 7.5 [1] |
| --- | --- | --- | --- | --- | --- | --- | --- | --- | --- | --- |
| – | CC[C@H](C)[C@@H](C(=O)N[C@@H](CC(C)C)C(=O)N[C@@H](CO)C(=O)N[C@@H](CO)C(=O)N[C@H](C(=O)N[C@@H](CC(N)=O)C(=O)N[C@H](C(=O)NCC(=O)N[C@@H](CO)C(=O)N[C@@H](CC(N)=O)C(=O)N[C@H](C(=O)N1CCC[C@H]1C(N)=O)[C@@H](C)O)C(C)C)[C@@H](C)O)N(C)C(=O)[C@H](C)NC(=O)CN(C)C(=O)[C@H](Cc1ccccc1)NC(=O)[C@H](CC(N)=O)NC(=O)[C@H](CC(N)=O)NC(=O)[C@H](CO)NC(=O)[C@H](CO)NC(=O)[C@H](Cc1c[nH]cn1)NC(=O)[C@H](Cc1c[nH]cn1)NC(=O)[C@H](CC(C)C)NC(=O)[C@H](Cc1ccccc1)NC(=O)[C@H](CCC(=O)O)NC(=O)[C@H](C)NC(=O)[C@H](CC(C)C)NC(=O)[C@H](CCCNC(=N)N)NC(=O)[C@H](CCC(N)=O)NC(=O)[C@@H](NC(=O)[C@H](C)NC(=O)[C@@H]1CSSC[C@H](NC(=O)[C@H](CCCNC(=N)N)NC(=O)CC[C@H](NC(=O)CCCCCCCCCCCCCCCCCCC(=O)O)C(=O)O)C(=O)N[C@@H](CC(N)=O)C(=O)N[C@@H]([C@@H](C)O)C(=O)N[C@@H](C)C(=O)N[C@@H]([C@@H](C)O)C(=O)N1)[C@@H](C)O [Compound 1, [19CD]-isoGlu-RC()NTATC()ATQRLAEFLHHSSNNF-Gly(Me)-A-Ile(Me)-LSSTNVGSNTP-NH2] ({C20 diacid-γGlu}-RCNTATCATQRLAEFLHHSSNNF[Sar]A[NMeI]LSSTNVGSNTP-NH2; disulfide 2-7) | 98 | 9 ± 1.8 | SS (SS indicates solubility ≥ 1mg/ml) | SS (SS indicates solubility ≥ 1mg/ml) | SS (SS indicates solubility ≥ 1mg/ml) | SS (SS indicates solubility ≥ 1mg/ml) | SS (SS indicates solubility ≥ 1mg/ml) | SS (SS indicates solubility ≥ 1mg/ml) | SS (SS indicates solubility ≥ 1mg/ml) |
| 0.062 | CC[C@H](C)[C@@H](C(=O)N[C@@H](CC(C)C)C(=O)N[C@@H](CO)C(=O)N[C@@H](CO)C(=O)N[C@H](C(=O)N[C@@H](CCC(=O)O)C(=O)N[C@H](C(=O)NCC(=O)N[C@@H](CO)C(=O)N[C@@H](CCC(=O)O)C(=O)N[C@H](C(=O)N1CCC[C@H]1C(N)=O)[C@@H](C)O)C(C)C)[C@@H](C)O)N(C)C(=O)[C@H](C)NC(=O)CN(C)C(=O)[C@H](Cc1ccccc1)NC(=O)[C@H](CO)NC(=O)[C@H](CO)NC(=O)[C@H](CO)NC(=O)[C@H](CO)NC(=O)[C@H](CCCNC(=N)N)NC(=O)[C@H](Cc1c[nH]cn1)NC(=O)[C@H](CC(C)C)NC(=O)[C@H](Cc1ccccc1)NC(=O)[C@H](CCC(=O)O)NC(=O)[C@H](C)NC(=O)[C@H](CC(C)C)NC(=O)[C@H](CCCNC(=N)N)NC(=O)[C@H](C)NC(=O)[C@@H](NC(=O)[C@H](C)NC(=O)[C@@H]1CSSC[C@H](NC(=O)[C@H](CCCNC(=N)N)NC(=O)CC[C@H](NC(=O)CCCCCCCCCCCCCCCCCCC(=O)O)C(=O)O)C(=O)N[C@@H](CC(N)=O)C(=O)N[C@@H]([C@@H](C)O)C(=O)N[C@@H](C)C(=O)N[C@@H]([C@@H](C)O)C(=O)N1)[C@@H](C)O [Compound 118, [19CD]-isoGlu-RC()NTATC()ATARLAEFLHRSSSSF-Gly(Me)-A-Ile(Me)-LSSTEVGSETP-NH2] ({C20 diacid-γGlu}-RCNTATCATARLAEFLHRSSSSF[Sar]A[NMeI]LSSTEVGSETP-NH2; disulfide 2-7) | 93 | 13 ± 1.8 | – | – | – | – | – | – | – |
| 0.12 | CC[C@H](C)[C@@H](C(=O)N[C@@H](CC(C)C)C(=O)N1CCC[C@H]1C(=O)N1CCC[C@H]1C(=O)N[C@H](C(=O)N[C@@H](CC(N)=O)C(=O)N[C@H](C(=O)NCC(=O)N[C@@H](CO)C(=O)N[C@@H](CC(N)=O)C(=O)N[C@H](C(=O)N1CCC[C@H]1C(N)=O)[C@@H](C)O)C(C)C)[C@@H](C)O)N(C)C(=O)CN(C)C(=O)[C@H](Cc1ccccc1)NC(=O)[C@H](CC(N)=O)NC(=O)[C@H](CC(N)=O)NC(=O)[C@H](CO)NC(=O)[C@H](CO)NC(=O)[C@H](Cc1c[nH]cn1)NC(=O)[C@H](Cc1c[nH]cn1)NC(=O)[C@H](CC(C)C)NC(=O)[C@H](Cc1ccccc1)NC(=O)[C@H](CCC(=O)O)NC(=O)[C@H](C)NC(=O)[C@H](CC(C)C)NC(=O)[C@H](CCCNC(=N)N)NC(=O)[C@H](CCC(N)=O)NC(=O)[C@@H](NC(=O)[C@H](C)NC(=O)[C@@H]1CSSC[C@H](NC(=O)[C@H](CCCNC(=N)N)NC(=O)CC[C@H](NC(=O)CCCCCCCCCCCCCCCCCCC(=O)O)C(=O)O)C(=O)N[C@@H](CC(N)=O)C(=O)N[C@@H]([C@@H](C)O)C(=O)N[C@@H](C)C(=O)N[C@@H]([C@@H](C)O)C(=O)N1)[C@@H](C)O [Compound 176, [19CD]-isoGlu-RC()NTATC()ATQRLAEFLHHSSNNF-Gly(Me)-Ile(Me)-LPPTNVGSNTP-NH2] ({C20 diacid-γGlu}-RCNTATCATQRLAEFLHHSSNNF[Sar][NMeI]LPPTNVGSNTP-NH2; disulfide 2-7) | – | – | SS (SS indicates solubility ≥ 1mg/ml) | SS (SS indicates solubility ≥ 1mg/ml) | SS (SS indicates solubility ≥ 1mg/ml) | SS (SS indicates solubility ≥ 1mg/ml) | SS (SS indicates solubility ≥ 1mg/ml) | SS (SS indicates solubility ≥ 1mg/ml) | SS (SS indicates solubility ≥ 1mg/ml) |

| SMILES | EC50 [2] [nM] | Food intake inhibition (%) after 48 hours (Sprague Dawley (SD) rats) [%] | Body weight loss (%) after 96 hours (Sprague Dawley (SD) rats) [%] | Solubility, Acetate buffer pH 4 [1] | Solubility, Acetate buffer pH 5 [1] | Solubility, Histidine buffer pH 6 [1] | Solubility, Histidine buffer pH 7 [1] | Solubility, Phosphate buffer pH 6 [1] | Solubility, Phosphate buffer pH 7 [1] | Solubility, Phosphate buffer pH 7.5 [1] |
| --- | --- | --- | --- | --- | --- | --- | --- | --- | --- | --- |
| CC[C@H](C)[C@H](NC(=O)[C@@H]1CCCN1C(=O)CNC(=O)[C@H](Cc1ccccc1)NC(=O)[C@H](CC(N)=O)NC(=O)[C@H](CC(N)=O)NC(=O)[C@H](CO)NC(=O)[C@H](CO)NC(=O)[C@H](Cc1c[nH]cn1)NC(=O)[C@H](Cc1c[nH]cn1)NC(=O)[C@H](CC(C)C)NC(=O)[C@H](Cc1ccccc1)NC(=O)[C@H](CCC(=O)O)NC(=O)[C@H](C)NC(=O)[C@H](CC(C)C)NC(=O)[C@H](CCCNC(=N)N)NC(=O)[C@H](CCC(N)=O)NC(=O)[C@@H](NC(=O)[C@H](C)NC(=O)[C@@H]1CSSC[C@H](NC(=O)[C@H](CCCNC(=N)N)NC(=O)CC[C@H](NC(=O)CCCCCCCCCCCCCCCCCCC(=O)O)C(=O)O)C(=O)N[C@@H](CC(N)=O)C(=O)N[C@@H]([C@@H](C)O)C(=O)N[C@@H](C)C(=O)N[C@@H]([C@@H](C)O)C(=O)N1)[C@@H](C)O)C(=O)N[C@@H](CC(C)C)C(=O)N1CCC[C@H]1C(=O)N1CCC[C@H]1C(=O)N[C@H](C(=O)N[C@@H](CC(N)=O)C(=O)N[C@H](C(=O)NCC(=O)N[C@@H](CO)C(=O)N[C@@H](CC(N)=O)C(=O)N[C@H](C(=O)N1CCC[C@H]1C(N)=O)[C@@H](C)O)C(C)C)[C@@H](C)O [NN96, N-α-[(S)-4-carboxy-4-(19-carboxynonadecanoylamino)butyryl]-[Arg1,Glu14,His17,Pro37]-pramlintide, reference compound] ({C20 diacid-γGlu}-RCNTATCATQRLAEFLHHSSNNFGPILPPTNVGSNTP-NH2; disulfide 2-7) | 0.089 | – | – | SS (SS indicates solubility ≥ 1mg/ml) | SS (SS indicates solubility ≥ 1mg/ml) | SS (SS indicates solubility ≥ 1mg/ml) | SS (SS indicates solubility ≥ 1mg/ml) | SS (SS indicates solubility ≥ 1mg/ml) | SS (SS indicates solubility ≥ 1mg/ml) | SS (SS indicates solubility ≥ 1mg/ml) |
